Measurements: ChEMBL document CHEMBL1201862, “PubChem BioAssay data set” (2004)
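Five concentrations, 48 hours, 96-well plates. GI50 marks 50% less growth.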 Activity calls are given as the source filed them. No stated cut-off is given here; in the data, active = GI50 up to about 1.1 µM and inactive = higher.

Assays:
Experiment in all cases: NCI-60 cell line screen, 48 h
[1] = test system: UO-31
[2] = test system: SW-620
[3] = test system: UACC-257
[4] = test system: M14
[5] = test system: OVCAR-4
[6] = test system: K562
[7] = test system: SF-268
[8] = test system: SNB-75
[9] = test system: HT-29
[10] = test system: HL-60
[11] = test system: UACC-62
[12] = test system: OVCAR-5
[13] = test system: A549
[14] = test system: TK-10
[15] = test system: Malme-3M
[16] = test system: SK-MEL-2
[17] = test system: OVCAR-8
[18] = test system: HCC 2998
[19] = test system: KM12
[20] = test system: RPMI-8226

Measured: GI50

O=c1cc(-c2cc(O)c(O)c(-c3c(O)cc4oc(-c5ccc(O)c(O)c5)cc(=O)c4c3O)c2)oc2cc(O)cc(O)c12
inactive: [1] > 25 µM | [2] > 25 µM | [3] > 25 µM | [4] > 25 µM | [5] > 25 µM | [6] > 25 µM | [7] > 25 µM | [8] 24.9 µM | [9] > 25 µM | [10] > 25 µM | [11] > 25 µM | [12] > 25 µM | [13] > 25 µM | [14] > 25 µM | [15] > 25 µM | [16] > 25 µM | [17] > 25 µM | [18] > 25 µM

C1CC2=C(C1)[Se]C(=C1Sc3nsnc3S1)[Se]2
inactive: [1] > 100 µM | [2] > 100 µM | [3] > 100 µM | [4] > 100 µM | [5] > 100 µM | [7] > 100 µM | [8] > 100 µM | [9] > 100 µM | [11] > 100 µM | [12] > 100 µM | [19] > 100 µM | [13] > 100 µM | [14] > 100 µM | [15] 71.3 µM | [16] > 100 µM | [17] > 100 µM | [18] > 100 µM | [20] > 100 µM

COc1ccc(OC)c(SC(CC(=O)c2ccccc2)c2ccccc2)c1 (centres undefined)
inactive: [1] 12.1 µM | [2] 3.73 µM | [3] 15.9 µM | [4] 16.7 µM | [5] 61.4 µM | [6] 4.91 µM | [7] 19.1 µM | [8] 18.4 µM | [9] 8.24 µM | [10] > 100 µM | [11] 15.6 µM | [12] 18.4 µM | [19] 4.06 µM | [13] 27.9 µM | [14] 17.2 µM | [15] 19.8 µM | [16] 20.1 µM | [17] 11.3 µM | [18] 17.5 µM

COC(=O)[C@@H]1C=C[C@H](NC(C)=O)C1
inactive: [1] > 100 µM | [2] > 100 µM | [3] > 100 µM | [4] > 100 µM | [5] > 100 µM | [6] > 100 µM | [8] > 100 µM | [9] > 100 µM | [11] > 100 µM | [12] > 100 µM | [19] > 100 µM | [14] > 100 µM | [15] > 100 µM | [16] > 100 µM | [17] > 100 µM | [18] > 100 µM | [20] > 100 µM

COC(=S)OC1CC(n2cnc3c(N)ncnc32)OC1CO[Si](C)(C)C(C)(C)C (centres undefined)
inactive: [1] 16.6 µM | [2] 28.6 µM | [3] 21.3 µM | [4] 16.4 µM | [5] 16.6 µM | [6] 2.75 µM | [9] 16.5 µM | [10] > 100 µM | [11] 10.6 µM | [12] 20.6 µM | [19] 23.7 µM | [14] 33.3 µM | [15] 31.5 µM | [16] 22.6 µM | [17] 24.3 µM | [20] 19 µM

C=C1C(=O)O[C@H]2[C@H]1[C@@H](OC(=O)C=C(C)C)CC1=C[C@@H](C[C@@]3(C)O[C@@H]23)OC1=O
inactive: [1] 7.74 µM | [2] 1.43 µM | [3] 2.18 µM | [5] 6.32 µM | [8] 18 µM | [9] 4.14 µM | [11] 3.52 µM | [12] 16.7 µM | [19] 5.74 µM | [13] 22 µM | [15] 8.04 µM | [16] 9.1 µM | [18] 17.4 µM

Cc1ccc2oc3c(ccc(=O)n3C)c(=O)c2c1
inactive: [1] > 100 µM | [2] > 100 µM | [4] > 100 µM | [5] > 100 µM | [6] > 100 µM | [7] > 100 µM | [8] > 100 µM | [9] > 100 µM | [10] > 100 µM | [11] > 100 µM | [12] > 100 µM | [19] > 100 µM | [13] > 100 µM | [14] > 100 µM | [15] > 100 µM | [16] > 100 µM | [17] > 100 µM | [18] > 100 µM

CC(C)(C)[Si](C)(C)OCC1OC(n2cnc3c(N)ncnc32)CC1OS(C)(=O)=O (centres undefined)
inactive: [1] 51.4 µM | [2] > 100 µM | [3] > 100 µM | [4] 21.7 µM | [5] > 100 µM | [6] > 100 µM | [9] > 100 µM | [10] 64.9 µM | [11] 42.1 µM | [12] 89.1 µM | [19] > 100 µM | [14] 42 µM | [15] > 100 µM | [16] > 100 µM | [17] > 100 µM | [20] > 100 µM

COc1cccc(C2C(C(=O)O)=C(CO)Oc3cc4c(cc32)OCO4)c1OC (centres undefined)
inactive: [1] > 100 µM | [2] > 100 µM | [4] > 100 µM | [6] > 100 µM | [7] > 100 µM | [8] > 100 µM | [10] > 100 µM | [11] > 100 µM | [14] > 100 µM | [15] > 100 µM | [16] > 100 µM | [17] > 100 µM | [20] > 100 µM

CC1=C(C)[C@@]2(C)O[C@@]2(C)O[C@@]2(C)O[C@@]12C
inactive: [1] > 100 µM | [3] > 100 µM | [4] > 100 µM | [5] > 100 µM | [6] > 100 µM | [7] > 100 µM | [8] > 100 µM | [9] > 100 µM | [11] > 100 µM | [12] > 100 µM | [19] > 100 µM | [13] > 100 µM | [14] > 100 µM | [15] > 100 µM | [16] > 100 µM | [17] > 100 µM

O=C1OC(c2ccccc2)=N/C1=C\c1ccc(Oc2ccc(Cl)c(Cl)c2)cc1
inactive: [1] 21.8 µM | [2] 37.7 µM | [3] > 100 µM | [4] 49.5 µM | [6] 24.4 µM | [7] 23.1 µM | [9] 69 µM | [10] 27.9 µM | [11] 26.2 µM | [12] > 100 µM | [19] 50 µM | [13] 43.1 µM | [14] > 100 µM | [15] 26 µM | [16] 50.5 µM | [17] 21.2 µM | [18] 50 µM

Cc1cc(S(=O)(=O)Nc2nc(Nc3ccccc3)n[nH]2)c(SSc2cc(Cl)c(C)cc2S(=O)(=O)Nc2nc(Nc3ccccc3)n[nH]2)cc1Cl
inactive: [1] > 100 µM | [2] > 100 µM | [3] > 100 µM | [4] > 100 µM | [5] > 100 µM | [6] 32.6 µM | [7] 86.7 µM | [8] > 100 µM | [9] 98.2 µM | [10] 25.1 µM | [11] > 100 µM | [12] > 100 µM | [19] > 100 µM | [13] > 100 µM | [14] 90.8 µM | [15] 46.8 µM | [17] > 100 µM | [20] > 100 µM
